Test results reported in ChEMBL document CHEMBL6103575, “Design, synthesis and evaluation of (E)-1-(4-(2-(1H-pyrazol-5-yl)vinyl)phenyl) derivatives as next generation selective RET inhibitors overcoming RET solvent front mutations (G810C/R)” (Eur J Med Chem, 2025).

Key:
[1] = biological target: Proto-oncogene tyrosine-protein kinase receptor Ret (Homo sapiens, UniProt P07949, G810C); test: Inhibition of RET (unknown origin) G810C mutant
BaF3 [2] = test: Inhibition of SHC phosphorylation in mouse BaF3 cells harboring CCDC6-RET G810R mutant incubated for 12 hrs by Western blotting analysis; type: cell-based; conditions: dose <= 300.0 nM
[3] = Induction of cell cycle arrest in mouse BaF3 cells harboring CCDC6-RET assessed as accumulation of cells at G2/M phase at 30 nM incubated for 24 hrs by propidium iodide staining based analysis (reference value: 34.11%); type: functional
BaF3 [4] = test: Antiproliferative activity against mouse BaF3 cells harbouring CCDC6-RET G810C mutant assessed as inhibition of cell proliferation incubated for 72 hrs by CCK-8 assay; type: functional, cell-based; conditions: BaF3, 72 h
BaF3 [5] = test: Inhibition of RET phosphorylation in mouse BaF3 cells harboring CCDC6-RET incubated for 12 hrs by Western blotting analysis; type: cell-based; conditions: dose <= 300.0 nM
[6] = Induction of apoptosis in mouse BaF3 cells harboring CCDC6-RET assessed as viable cells at 10 nM incubated for 48 hrs by Annexin V-PE staining based flow cytometry analysis (Rvb =91.16%); type: functional; conditions: read-out: Activity
[7] = Induction of apoptosis in mouse BaF3 cells harboring CCDC6-RET G810C mutant assessed as necrotic cells at 100 nM incubated for 48 hrs by Annexin V-PE staining based flow cytometry analysis (Rvb =0.48%); type: functional

Sequence of Proto-oncogene tyrosine-protein kinase receptor Ret (P07949 29-1114 G810C limits assumed): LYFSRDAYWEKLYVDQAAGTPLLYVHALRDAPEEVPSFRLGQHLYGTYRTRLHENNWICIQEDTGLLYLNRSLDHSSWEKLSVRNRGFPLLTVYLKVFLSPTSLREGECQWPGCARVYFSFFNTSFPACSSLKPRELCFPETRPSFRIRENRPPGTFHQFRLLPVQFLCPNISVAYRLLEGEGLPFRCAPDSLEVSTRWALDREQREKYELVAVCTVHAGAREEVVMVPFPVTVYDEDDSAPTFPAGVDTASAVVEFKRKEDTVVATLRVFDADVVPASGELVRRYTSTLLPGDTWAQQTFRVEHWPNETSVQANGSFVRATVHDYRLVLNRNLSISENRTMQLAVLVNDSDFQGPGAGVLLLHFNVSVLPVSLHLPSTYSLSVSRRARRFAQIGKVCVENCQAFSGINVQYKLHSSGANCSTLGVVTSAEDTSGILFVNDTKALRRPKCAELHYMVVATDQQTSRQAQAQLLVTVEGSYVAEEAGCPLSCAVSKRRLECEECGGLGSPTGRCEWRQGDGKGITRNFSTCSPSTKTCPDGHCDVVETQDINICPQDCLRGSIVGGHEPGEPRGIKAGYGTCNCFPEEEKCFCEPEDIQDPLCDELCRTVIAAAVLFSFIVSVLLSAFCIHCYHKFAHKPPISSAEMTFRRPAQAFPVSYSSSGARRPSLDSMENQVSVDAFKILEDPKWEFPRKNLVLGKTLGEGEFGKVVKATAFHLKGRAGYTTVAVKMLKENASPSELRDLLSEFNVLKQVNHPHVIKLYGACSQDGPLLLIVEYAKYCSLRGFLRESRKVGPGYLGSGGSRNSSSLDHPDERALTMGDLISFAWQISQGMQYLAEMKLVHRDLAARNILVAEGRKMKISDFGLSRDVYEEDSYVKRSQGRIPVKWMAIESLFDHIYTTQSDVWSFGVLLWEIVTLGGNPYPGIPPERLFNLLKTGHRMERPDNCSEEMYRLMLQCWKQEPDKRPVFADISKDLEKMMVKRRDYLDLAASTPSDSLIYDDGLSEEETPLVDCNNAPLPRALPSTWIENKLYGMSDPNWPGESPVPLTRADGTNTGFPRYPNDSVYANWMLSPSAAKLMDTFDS

- IC50 [1]: 7.1 nM
- IC50 (BaF3 [4]): 25.7 nM
SMILES: COc1cncc(-c2cn[nH]c2/C=C/c2ccc(NC(=O)Nc3cc(C(C)(C)C(F)(F)F)on3)c(Cl)c2)c1
- inhibition (BaF3 [2]): Dose-dependent-effect
- Activity [3]: 30.23%
- inhibition (BaF3 [5]): Dose-dependent-effect
- viability at 0.01 µM [6]: 86.4%
- Activity [7]: 0.24%
